Experimental data reported in patent US20080119457A1, “Benzene, Pyridine, and Pyridazine Derivatives” (SERENEX, INC., priority 2006, published 2008).

Tested on: HSP-90 (heat shock protein 90)
Assay: Determination of affinity for HSP-90 (elution from purine affinity column)
Type: binding
Design: key: +++ stands for very high; ++ for high; + for moderate
Description: Affinity of test compounds for HSP-90 is determined as follows: Protein mixtures obtained from a variety of organ tissues (for example: spleen, liver and lung) are reversibly bound to a purine affinity column to capture purine-binding proteins, especially HSP-90. The purine affinity column is washed several times, and then eluted with 20 μM, 100 μM, and 500 μM of test compound. Compounds of Formula I elute HP-90 in a dose-dependent manner vs. a control elution using dimethylsulfoxide. The elution profile of Formula I compounds is determined by 1-dimensional SDS polyacrylamide gel electrophoresis. Gels are stained with a fluorescent stain such as sypro ruby (a highly sensitive fluorescent protein stain that can readily detect less than 1 fmol of total protein, i.e., less than 0.04 ng for a 40 kDa protein) or silver nitrate. The gels are imaged using a standard flat bed gel imager and the amount of protein estimated by densitometry. The percent of HSP-90 protein eluted from the column at each concentration is determined and IC50 values are calculated from these estimates.

SMILES | relative binding affinity to HSP-90
Cn1nc(-c2ccc(C(N)=O)c(NC3CCOCC3)c2)c2c1C(=O)CC(C)(C)C2 [Compound 3, 2-(Tetrahydro-pyran-4-ylamino)-4-(1,5,5-trimethyl-7-oxo-4,5,6,7-tetrahydro-1H-indazol-3-yl)-benzamide] | +++
Cc1cc(=O)c2c(C)nn(-c3ccc(C(N)=O)c(NC4CCOCC4)c3)c2o1 [Compound 7, 4-(3,6-Dimethyl-4-oxo-4H-pyrano[2,3-c]pyrazol-1-yl)-2-(tetrahydro-pyran-4-ylamino)-benzamide] | +++
Cc1nn(-c2ccc(C(N)=O)c(NC3CCOCC3)c2)c2nc[nH]c(=O)c12 [Compound 9, 4-(3-Methyl-4-oxo-4,5-dihydro-pyrazolo[3,4-d]pyrimidin-1-yl)-2-(tetrahydro-pyran-4-ylamino)-benzamide] | +
COc1ccc2ccn(-c3ccc(C#N)c(N[C@H]4CC[C@H](O)CC4)c3)c2c1 [Compound 19, 2-(4-Hydroxycyclohexylamino)-4-(6-methoxyindol-1-yl)benzonitrile] | +++
COc1cccc2c1ccn2-c1ccc(C#N)c(N[C@H]2CC[C@H](O)CC2)c1 [Compound 21, 2-(4-Hydroxycyclohexylamino)-4-(4-methoxyindol-1-yl)benzonitrile] | +++
CC(=O)c1ccc(-c2ccc(C#N)c(NC3CCC(O)CC3)c2)s1 (centres unmarked) [Compound 23, 4-(5-Acetyl-thiophen-2-yl)-2-(4-hydroxy-cyclohexylamino)-benzonitrile] | ++
COc1cc2ccn(-c3ccc(C#N)c(Nc4ccccc4)c3)c2cc1OC [Compound 34, 4-(5,6-dimethoxy-1H-indol-1-yl)-2-(phenylamino)benzonitrile] | +
Cc1nc(-c2ccc(C#N)c(NC3CCOCC3)c2)n2c1C(=O)CCC2 [Compound 35, 4-(1-methyl-8-oxo-5,6,7,8-tetrahydroimidazo[1,5-a]pyridin-3-yl)-2-(tetrahydro-2H-pyran-4-ylamino)benzonitrile] | +++
NC(=O)c1ccc(-n2ccc3ccccc32)c(Cl)c1 [Compound 46, 3-chloro-4-(1H-indol-1-yl)benzamide] | ++
COCC(C)Nc1cc(-n2cc(C)c(C(C)=O)c2C)ccc1C(N)=O (centres unmarked) [Compound 47, 4-(3-acetyl-2,4-dimethyl-1H-pyrrol-1-yl)-2-(1-methoxypropan-2-ylamino)benzamide] | ++
N#Cc1ccc(-c2ccc3n2CCCC3=O)cc1NC1CCC(O)CC1 (centres unmarked) [Compound 51, 2-(4-hydroxycyclohexylamino)-4-(8-oxo-5,6,7,8-tetrahydroindolizin-3-yl)benzonitrile] | +++
